Assays:
[1] = tested on: donor cells (I-A^b+ or GFP+) in recipient DLN; assay: Donor migratory cells screened in the recipient DLN by flow cytometry; format: in vivo, mice (Mus musculus)
[2] = tested on: MHC II; assay: MHC II expression in LPS-activated BMDCs; format: cell-based, mice (Mus musculus); conditions: BMDCs treated or not with LPS 24 h, then treated or not with Hsp70 for additional 24 h
[3] = tested on: recipient DCs; assay: Indirect alloantigen presentation by recipient DCs (Y-Ae antibody); format: in vivo, mice (Mus musculus); conditions: BALB/c grafts in B6 recipients; vs OVA
Method: Subsequently, the alloantigens presentation was analyzed by the recipient DCs using the antibody Y-Ae. This antibody recognizes a peptide (Eα52-68) expressed in BALB/c animals bound in the MHC II I-A^b molecule (expressed in the B6 animals).

[4] = tested on: ERK; assay: p-ERK intracellular marking in BMDCs; format: cell-based, mice (Mus musculus)
[5] = tested on: cutaneous allograft (B6 donor skin in BALB/c recipients); assay: Cutaneous allograft model, graft immersion followed by topic application; format: in vivo, mice (Mus musculus)
Excerpt: That is, animals that received grafts treated with Hsp70 receive the local application of a Hsp70 solution and the same for OVA.
After this, the grafts were sutured in BALB/c (I-A^d) animals' back. […] The animals were daily monitored. (A) Schematic representation of the treatment strategy used in the experiment. (B) Photographic record of the clinical progression of the acute rejection in groups Hsp70 and OVA. […] Data achieved from previous experiments.

[6] = tested on: cutaneous allograft (B6 donor skin in BALB/c recipients); assay: Murine model of cutaneous allograft, graft immersion-treatment; format: in vivo, mice (Mus musculus)
Excerpt: A method for treating grafts, including allografts, was developed by the inventors of the present invention. Thus, the method treats the grafts (that may be full organs) instead of recipient that will receive the graft, using as tool a classic murine model of skin transplantation and well established. Such method, to the light of the inventors, may be considered as new and inventive. The said model consists of a complete incompatibility of MHC molecules and was described by BILLINGHAM & MEDAWAR (1951).
BALB/c recipients, which express the MHC II I-A^d molecule, are anaesthetized and the dorsal stem hairs are removed. In the waxed area, 1 cm^2 of the skin was removed in each recipient mouse and the donor tail skin was sutured in the exposed area. The animals are maintained in individual cages and daily monitored. The graft rejection is confirmed by observing the cyanosis, erythema, erosion and cutaneous graft loss.
This model consists of a complete incompatibility of MHC molecules and was described by BILLINGHAM & MEDAWAR (1951). In this model, the donor mouse B6, which expresses the MHC II I-A^b molecule, is sacrificed. […] After this period, the grafts were sutured in the BALB/c recipients' back, who express the MHC II I-A^d molecule, and the rejection clinical progression is daily monitored.
After that, the grafts were sutured in the BALB/c (I-Ad) animals' back. The animals were daily monitored. ***, p<0.0001. n=22-24 mice per group. The results achieved putting the seven independent experiments together.
After this, these grafts were sutured in BALB/c recipients WT and their rejection were daily monitored.
After this, the grafts were sutured in the BALB/c (I-Ad) animals' back. The animals were daily monitored. *, p<0.05. n=4 mice per group.

[7] = tested on: CD4+ and CD8+ T cells in recipient DLN; assay: Recipient responses in DLN (cell count, Ki67 proliferation, Tregs); format: in vivo, mice (Mus musculus)
Method: Cells of the donor mice (I-A^b+ or GFP+) were detected in the axillary lymph nodes of the recipients, 24 h or 96 h after the transplantation by flow cytometry. The transplanted mice were sacrificed, the axillary lymph nodes were removed and macerated in a nylon screen with a mean that had D Collagenase (Roche®). We achieved a cell suspension that had the cells in contact with Tripan blue and analyzed by flow cytometry.
For analyzing the recipients T cells, the cells were marked for CD4 (GK1.5), CD8a (53-6.7), Foxp3 (MF23), Ki67 (B56) achieved from BD Biosciences. The specific transcription factor marking of Tregs Foxp3 was performed using the kit Mouse Foxp3 Buffer Set (BD Biosciences), according to the manufacturer instructions. The levels of phosphorylated ERK and STAT3 were determined using antibodies for p-ERK1/2 and p-STAT3 (BD Biosciences) in BMDCs previously fixed and permeablized. The cells were subsequently analyzed in the flow cytometer FACSCanto II (BD Biosciences) with the BD FACSDiva (BD Biosciences) program. The data achieved were analyzed with the Flowjo program (version 7.6.5, Tree Star).
When analyzed the median responses in the Recipients' DLNs, it was noted, for inventors surprise, which animals that received grafts treated with OVA presented organs in a greater size when compared with animals that received grafts treated with Hsp70.
For analyzing this hypothesis, the proliferation of these cells was analyzed by marking with Ki67 in the transplanted animals DLN. Ki67 is a molecule having a role in the cellular cycle and is expressed by any organism cell that is proliferating. […] An increase in the number of regulating T cells (Tregs) may reduce the alloreactive T cells proliferation in the recipient DLN, delaying the rejection to grafts. […] These findings are in accordance with the observation that immature DCs administration in human leads to an inhibition of the CD8+ T cells effector functions.
FIG. 7. […]

“Hsp70: recombinant Mycobacterium tuberculosis Hsp70 (DnaK) produced in Escherichia coli BL21, LPS removed” was tested, and the “MHC II levels in DCs CD103+ migrating from the graft to the recipient DLN (FIG. 9 B)” value ([1]; 24 h or 96 h after transplantation) was “significant reduction of MHC II levels”, the “CD80 and CD86 levels of donor DCs (FIG. 6 C)” value ([1]; 24 h or 96 h after transplantation, vs OVA) was “reduced levels of CD80 and CD86” and the “CCR7 expression in migratory donor DCs” value ([1]; 24 hours after transplantation, vs OVA) was “upper levels of CCR7”. The “CCR7 expression in migratory donor DCs” value ([1]; four days after transplantation, vs OVA) was “did not differ”, the “MHC II expression in donors DCs in recipient DLN (FIG. 6 A, B)” value ([1]; graft treated by immersion, vs OVA) was “MHC II expression reduction” and the “donor cells (I-A^b+ or GFP+) in the recipient DLN” value ([1]; one and four days after transplantation, vs OVA) was “not noted any difference”. The “percentage of CD11c+ I-Ab^hi cells (FIG. 4)” value [2] was “revert partially”, the “antigens presentation levels by recipient DCs, Y-Ae (FIG. 6 D)” value [3] was “no difference” and the “p-ERK levels in BMDCs (FIG. 13 A)” value ([4]; 30 μg/ml, after 15 minutes of stimulus, WT) was “increase in the phosphor ERK levels”. The “p-ERK levels in TLR2 KO BMDCs (FIG. 13 B)” value ([4]; TLR2 KO BMDCs, 15 minutes) was “increase was not noted”, the “graft survival, immersion plus topic application until day 7 (FIG. 18)” value ([5]; compared to animals treated with OVA) was “much bigger” and the Survival median ([5]; group '- 1 day') was 17.0 days. For the same substance, the “graft acceptance after immersion with Hsp70 or peptides (FIG. 17)” value ([6]; 60 μg/ml Hsp70 or 15 μg/ml peptide, 60 minutes at 4° C., compared to OVA peptide and peptide 5) was “inhibited the acute rejection”, the “graft survival compared with grafts treated with OVA (FIG. 1)” value ([6]; 60 μg/ml, 60 minutes at 4° C.) was “greater survival” and the “graft protection with grafts from donors IL-10 KO (FIG. 11 E)” value ([6]; IL-10 KO grafts, 60 μg/ml, 60 minutes) was “cancelled the protection”. For the same substance, the Survival average ([6]; graft immersed in 60 μg/mL for 60 minutes, seven independent experiments) was 20.0 days, the “lengthening of graft survival with TLR2 KO grafts (FIG. 12 D)” value ([6]; mouse, in vivo) was “dependent on the TLR2 expression in the graft” and the “survival of WT grafts in WT or TLR2 KO recipients (FIG. 12 E)” value ([6]; mouse, in vivo) was “very similar survival”. The “total of cells of the Recipients' DLNs (FIG. 7 A)” value ([7]; days 1, 4, 7 and 10 after transplantation, vs OVA) was “lower absolute number of cells”, the “CD4+ and CD8+ T cells proliferation (Ki67) in recipient DLN (FIG. 7 B, C)” value ([7]; graft treated by immersion) was “reduction marked” and the “Tregs in the recipient DLN (FIG. 7 D)” value ([7]; graft treated by immersion) was “not detected a significant increase”.

Reference: US20160295854A1, “COMPOSITION AND METHOD FOR EX-VIVO IMMUNOMODULATION AND/OR PRESERVATION OF ORGANS, METHODS AND USE” (UNIAO BRASILEIRA DE EDUCACAO E ASSISTENCIA , MANTENEDORA DA …, priority 2014, published 2016)
